According to article PMC6862080, “Blood Compatibility—An Important but Often Forgotten Aspect of the Characterization of Antimicrobial Peptides for Clinical Application” (International Journal of Molecular Sciences, 2019):
Like-named read-outs stand apart in the source and are kept apart here. Peptide text beside a SMILES is read from it. * marks the point of attachment. Myristoyl = CCCCCCCCCCCCCC(=O)*

Key:
E. coli (ATCC 11303) = assay: microbe, parasite or virus in culture; format: cell-based; details: for MIC: Escherichia coli
S. aureus (ATCC 12600) = assay: microbe, parasite or virus in culture; format: cell-based; details: for MIC: Staphylococcus aureus
erythrocyte membranes [1] = assay: Hemolysis in whole blood (Kahn method); format: cell-based, human
Method: (§1) Hemolysis was tested with fresh citrate anticoagulated blood from healthy volunteers as well as with blood cells which were suspended in phosphate buffered saline (10 mM pH 7.4). Afterwards, 100 μL AMP solution was added to 500 μL blood to finally achieve AMP concentrations of 8, 32, and 128 μg/mL. As the negative and positive control, 100 μL PBS buffer and 100 μL 12% Triton-X buffer was added to 500 μL blood, respectively. After incubation on an orbital shaker for 60 min at 37 °C, the cells were removed by centrifugation and 100 μL of the supernatant were transferred to a 96 well microplate for hemolysis measurement. The hemolysis was calculated from the extinction at the wavelengths 562, 578, and 598 nm with a Synergy 2 microplate reader (BioTek, Winooski, VT, USA) according to the method published by Kahn.

erythrocyte membranes [2] = assay: Hemolysis in RBC suspended in PBS (Kahn method); format: cell-based, human
Method: as §1

plasmatic coagulation [3] = assay: Clotting batch test in citrate plasma; format: biochemical, human; on Clotting of citrate plasma, Peptide Concentration 128 μg/mL: key: −: no clotting observed, no D-dimers and normal fibrinogen level; +: clotting observed, high D-dimer level, no detectable fibrinogen serum level; on Clotting of citrate plasma, Peptide Concentration 256 μg/mL: key: −: no clotting observed, no D-dimers and normal fibrinogen level; +: clotting observed, high D-dimer level, no detectable fibrinogen serum level; on Clotting of citrate plasma, Peptide Concentration 32 μg/mL: key: −: no clotting observed, no D-dimers and normal fibrinogen level; +: clotting observed, high D-dimer level, no detectable fibrinogen serum level; on Clotting of citrate plasma, Peptide Concentration 8 μg/mL: key: −: no clotting observed, no D-dimers and normal fibrinogen level; +: clotting observed, high D-dimer level, no detectable fibrinogen serum level
Method: Since the acylated LF11-322 peptides cause plasmatic coagulation of citrate anticoagulated plasma, separate clotting experiments were performed with this peptide group. The aim was to check whether the coagulation activation is dependent on the AMP concentration and on the acyl chain length. […] Plasma without additives served as the negative control, whereas plasma spiked with CaCl2/MgCl2 (500/250 mM) solution to restore the physiological calcium and magnesium level in plasma was used as the positive control. Incubation was performed at 37 °C for 60 min. […] In order to ensure that the measured turbidity of the plasma is caused by fibrin formation, the fibrinogen and D-Dimer concentrations were additionally determined. During plasmatic clotting, the fibrinogen level decreases and the D-Dimer level in serum increases. Both were analyzed on a Sysmex CA560 with the corresponding reagents (Siemens Healthineers, Erlangen, Germany).

platelets [4] = assay: Platelet activation, platelet count in citrate anticoagulated PRP; format: cell-based, human; details: 128 μg/mL, 2 h, 37 °C, Sysmex analyzer, n = 3
Method: (§2) Since it was observed that some AMPs are able to activate the plasmatic coagulation system of heparinized and citrate anticoagulated blood, the influence of this peptides on platelets was investigated. For this purpose, fresh heparinized and citrated blood were collected from three donors. The blood was centrifuged at 500 g for 5 min and platelet rich plasma (PRP) was obtained. The PRP was incubated at 37 °C for 2 h with 128 μg/mL AMP, PMB, and LL-37. PRP without any additives served as the control. After incubation, the platelet number was determined by a Sysmex Automated Hematology Analyzer KX-21-N (Kobe, Japan). In addition, the PRP samples were prepared for SEM to visualize the morphology of the thrombocytes. After incubation, 10 μL PRP were diluted with 990 μL PBS (0.01 M) and filtered through a 0.2 μm membrane (Membrane Filter Isopore 0.2 μm, Merck, Darmstadt, Germany). The platelets were retained on the membrane, washed with 1 mL PBS, and fixed with 1 mL glutaraldehyde solution (2.5% glutaraldehyde in physiological saline solution). After an incubation time of 60 min, the samples were dehydrated using a series of ethanol (30%, 50%, 60%, 70%, 80%, 90%, and 100%). Afterwards the samples were dried overnight at RT, sputtered with gold and visualized with a scanning electron microscope (FLEXSem 1000, Hitachi, Japan).

platelets [5] = assay: Platelet activation, platelet count in heparin anticoagulated PRP; format: cell-based, human; details: 128 μg/mL, 2 h, 37 °C, Sysmex analyzer, n = 3
Method: as §2

platelets [6] = assay: SEM imaging of platelet morphology in PRP; format: cell-based, human; details: 128 μg/mL, 2 h, 37 °C
Method: as §2

human leukocytes = assay: Cytotoxicity on leukocytes in whole blood, flow cytometry (7-AAD); format: cell-based; details: citrate anticoagulated whole blood, 128 μg/mL, 37 °C, 120 min / 60 min, CD45, flow cytometry, n = 3
Method: The measurement of the membrane destabilization of leukocytes by AMPs was carried out by flow cytometry. […] Whole blood without AMPs or antibiotics was used as a control. After incubation, the proportion of apoptotic and dead cells was determined by flow cytometry. To achieve this, blood samples were diluted 1:100 with 0.01 M phosphate buffered saline and centrifuged at 300 g for 10 min. The supernatant was removed, and cells were stained with 10 μL CD45 pacific blue (leukocyte marker; Beckman coulter, Brea, CA) and 10 μL 7-AAD (a marker for dead cells; Sigma-Aldrich, Steinheim, Germany) for 15 min at room temperature in the dark. After incubation, 1.8 mL lysis buffer (1:10 dilution in distilled water) was added, mixed, and incubated for 10 min at room temperature in the dark. This was followed by two washing steps (2300 g, 5 min, room temperature) and the cells were resuspended in a final volume of 200 μL 0.01 M PBS for measurement. Flow cytometry was performed using a Gallios flow cytometer (Beckman Coulter, Brea, CA, USA) equipped with 405 nm, 488 nm, and 638 nm lasers and the Kaluza Analysis Software (Beckman Coulter, Brea, CA, USA), which was used for measurement and data analysis. Blood cells which were incubated in 70% methanol before staining served as the positive control and blood cells without any additives were used as the negative control.

[7] = system: all species of Enterobacteriaceae and Staphylococcus; details: against all species of Enterobacteriaceae and Staphylococcus; cited from earlier work
Method: It is noticeable that the MIC decreases with increasing acylation length of the peptide (Table 1). The antimicrobial effect of the LF11-322 peptides against E. coli and S. aureus decreased when the MIC was tested in 4% HSA solution. This is probably due to the partial binding of AMPs to albumin.

plasmatic coagulation [8] = assay: Activation of the clotting cascade in heparinized plasma; details: heparinized (0.5 IU/mL) plasma, 128 μg/mL, 37 °C, 120 min, turbidity at 600 nm
Method: (§3) Plasma spiked with MES buffer without AMP was used as the negative control. […] Samples were incubated at 37 °C for 120 min. Coagulation was determined by turbidity measurement at 600 nm using a well plate reader.

plasmatic coagulation [9] = assay: Activation of the clotting cascade in citrated plasma; details: citrated (17 mM) plasma, 128 μg/mL, 37 °C, 120 min, turbidity at 600 nm
Method: as §3

[10] = citrate plasma, 37 °C, 60 min, turbidity 600 nm, fibrinogen and D-Dimer

For `CCCCCCCCCCCCCC(=O)N1CCC[C@H]1C(=O)N[C@@H](Cc1ccccc1)C(=O)N[C@@H](Cc1c[nH]c2ccccc12)C(=O)N[C@@H](CCCNC(=N)N)C(=O)N[C@H](C(=O)N[C@@H](CCCNC(=N)N)C(=O)N[C@H](C(=O)N[C@@H](CCCNC(=N)N)C(=O)N[C@@H](CCCNC(=N)N)C(N)=O)[C@@H](C)CC)[C@@H](C)CC` [LF11-322-C14] (Myristoyl-PFWRIRIRR-NH2), which “Minimal Inhibitory Concentration, E. coli, PBS” value (E. coli (ATCC 11303); ATCC 11303, pH 7.4) is on record?
The value was 64 µg/mL.

What about the “Minimal Inhibitory Concentration, S. aureus, PBS” value (S. aureus (ATCC 12600); ATCC 12600, pH 7.4) of the same compound?
Its value is 8 µg/mL.

And the “Free Hemoglobin, BLOOD, 8 μg/mL” value (erythrocyte membranes [1])?
The value was 2.9 ± 3.4 mg/dL.

And the “Free Hemoglobin, BLOOD, 32 μg/mL” value (erythrocyte membranes [1])?
The value was 5.4 ± 3.2 mg/dL.

What about the “Free Hemoglobin, BLOOD, 128 μg/mL” value (erythrocyte membranes [1]) of the same compound?
The value was 2.9 ± 4.2 mg/dL.

What about the “Free Hemoglobin, RBC in PBS, 8 μg/mL” value (erythrocyte membranes [2]; pH 7.4) of the same compound?
Its value is 12.9 ± 1.2 mg/dL.

And the “Free Hemoglobin, RBC in PBS, 32 μg/mL” value (erythrocyte membranes [2]; pH 7.4)?
Its value is 31.8 ± 3.14 mg/dL.

And the “Peptide concentration that triggers clotting of citrate plasma” value (plasmatic coagulation [3])?
The value was at least 32 µg/mL.

What about the “Platelet count in citrate anticoagulated PRP vs control (in words)” value (platelets [4]) of the same compound?
The value was “significantly reduce the platelet count”.

What about the “Platelet count in heparinized PRP vs control (in words)” value (platelets [5]) of the same compound?
Its value is “no significant difference in platelet count”.

And the “Platelet morphology by SEM, citrate anticoagulated PRP (in words)” value (platelets [6])?
Its value is “hardly any intact platelets left”.

What about the “Percentage of dead leukocytes” value (human leukocytes) of the same compound?
Its value is 21 ± 16%.

Which results are given for `O=C(O)c1cn(C2CC2)c2cc(N3CCNCC3)c(F)cc2c1=O` [Ciprofloxacin, reference compound]?
MIC (E. coli (ATCC 11303); ATCC11303, pH 7.4, read-out: Minimal Inhibitory Concentration, E. coli, PBS): < 0.0625 mg/L; MIC (E. coli (ATCC 11303); ATCC11303, read-out: Minimal Inhibitory Concentration, E. coli, PBS + heparin): < 0.0625 mg/L; MIC (S. aureus (ATCC 12600); ATCC12600, pH 7.4, read-out: Minimal Inhibitory Concentration, S. aureus, PBS): < 0.0625 mg/L; MIC (S. aureus (ATCC 12600); ATCC12600, read-out: Minimal Inhibitory Concentration, S. aureus, PBS + heparin): < 0.0625 mg/L; MIC90 [7]: < 1 mg/L

Which results are given for `CC[C@H](C)[C@H](NC(=O)[C@H](CCCCN)NC(=O)[C@H](CCC(=O)O)NC(=O)[C@H](CCCCN)NC(=O)[C@H](CO)NC(=O)[C@H](CCCCN)NC(=O)[C@H](CCCNC(=N)N)NC(=O)[C@H](Cc1ccccc1)NC(=O)[C@H](Cc1ccccc1)NC(=O)[C@H](CC(=O)O)NC(=O)CNC(=O)[C@H](CC(C)C)NC(=O)[C@@H](N)CC(C)C)C(=O)NCC(=O)N[C@@H](CCCCN)C(=O)N[C@@H](CCC(=O)O)C(=O)N[C@@H](Cc1ccccc1)C(=O)N[C@@H](CCCCN)C(=O)N[C@@H](CCCNC(=N)N)C(=O)N[C@H](C(=O)N[C@H](C(=O)N[C@@H](CCC(N)=O)C(=O)N[C@@H](CCCNC(=N)N)C(=O)N[C@H](C(=O)N[C@@H](CCCCN)C(=O)N[C@@H](CC(=O)O)C(=O)N[C@@H](Cc1ccccc1)C(=O)N[C@@H](CC(C)C)C(=O)N[C@@H](CCCNC(=N)N)C(=O)N[C@@H](CC(N)=O)C(=O)N[C@@H](CC(C)C)C(=O)N[C@H](C(=O)N1CCC[C@H]1C(=O)N[C@@H](CCCNC(=N)N)C(=O)N[C@H](C(=O)N[C@@H](CCC(=O)O)C(=O)N[C@@H](CO)C(=O)O)[C@@H](C)O)C(C)C)[C@@H](C)CC)C(C)C)[C@@H](C)CC` [LL-37, reference compound]?
Free Hemoglobin, BLOOD, 8 μg/mL (erythrocyte membranes [1]; citrate anticoagulated whole blood, peptide conc. 8 μg/mL, 60 min 37 °C, Kahn method, n = 3, control 3.7 ± 1.9): 1.1 ± 0.7 mg/dL; Free Hemoglobin, BLOOD, 32 μg/mL (erythrocyte membranes [1]; citrate anticoagulated whole blood, peptide conc. 32 μg/mL, 60 min 37 °C, Kahn method, n = 3, control 3.7 ± 1.9): 9.4 ± 13.4 mg/dL; Free Hemoglobin, BLOOD, 128 μg/mL (erythrocyte membranes [1]; citrate anticoagulated whole blood, peptide conc. 128 μg/mL, 60 min 37 °C, Kahn method, n = 3, control 3.7 ± 1.9): 2.6 ± 3.7 mg/dL; Free Hemoglobin, RBC in PBS, 128 μg/mL (erythrocyte membranes [2]; blood cells suspended in PBS 10 mM pH 7.4, highest peptide conc., 60 min 37 °C, Kahn method, n = 3, control 8.5 ± 4.7): 68.4 ± 15.0 mg/dL; Free Hemoglobin, RBC in PBS, 8 μg/mL (erythrocyte membranes [2]; blood cells suspended in PBS 10 mM pH 7.4, peptide conc. 8 μg/mL, 60 min 37 °C, Kahn method, n = 3, control 8.5 ± 4.7): 2.4 ± 3.6 mg/dL; Free Hemoglobin, RBC in PBS, 32 μg/mL (erythrocyte membranes [2]; blood cells suspended in PBS 10 mM pH 7.4, peptide conc. 32 μg/mL, 60 min 37 °C, Kahn method, n = 3, control 8.5 ± 4.7): 44.8 ± 17.7 mg/dL; Plasma clot, Heparin Plasma (plasmatic coagulation [8]): −; Plasma clot, Citrated Plasma (plasmatic coagulation [9]): −; Clotting of citrate plasma, Peptide Concentration 8 μg/mL (plasmatic coagulation [3]; [10]): −; Clotting of citrate plasma, Peptide Concentration 32 μg/mL (plasmatic coagulation [3]; [10]): −; Clotting of citrate plasma, Peptide Concentration 128 μg/mL (plasmatic coagulation [3]; [10]): −; Clotting of citrate plasma, Peptide Concentration 256 μg/mL (plasmatic coagulation [3]; [10]): −
